In patent publication US10829778B2, “Plants having increased tolerance to herbicides” (BASF SE, priority 2013, dated 2020):

Legend:
[1] = system: Arabidopsis wild-type control plants; assay: Arabidopsis germination/growth inhibition assay in 48-well plates; format: in vivo, Arabidopsis thaliana; conditions: plant growth IC50 relative to wildtype
Description: (§1) Tolerance to N-heterocyclyl-arylcarboxamides can also be assessed in Arabidopsis. In this case transgenic Arabidopsis thaliana plants are assayed for improved tolerance to N-heterocyclyl-arylcarboxamides in 48-well plates. Seeds are surface sterilized by stirring for 5 min in ethanol+water (70+30 by volume), rinsing one time with ethanol+water (70+30 by volume) and two times with a sterile, deionized water. The seeds are resuspended in 0.1% agar dissolved in water (w/v). Four to five seeds per well are plated on solid nutrient medium consisting of half-strength Murashige Skoog nutrient solution, pH 5.8 (Murashige and Skoog (1962) Physiologia Plantarum 15: 473-497). Compounds are dissolved in dimethylsulfoxid (DMSO) and added to the medium prior solidification (final DMSO concentration 0.1%). Multi well plates are incubated in a growth chamber at 22° C., 75% relative humidity and 110 μmol Phot*m-2*s-1 with 14:10 h light: dark photoperiod. Seven to ten days after seeding growth inhibition is evaluated by comparison to wild type plants. Tolerance factor is calculated by dividing the plant growth IC50 value of transgenic plants containing a HPPD and/or HST sequence by that of wildtype plants.

[2] = system: transgenic Arabidopsis plants overexpressing HPPD (Seq ID: 53); assay: as above; format: in vivo, Arabidopsis thaliana; conditions: plant growth IC50 of transgenic divided by wildtype; HPPD (Seq ID: 53) overexpression
Description: as §1

[3] = biological target: T1, Arabidopsis HPPD (SEQ ID NO:53) (Arabidopsis thaliana, UniProt P93836); assay: HPPD activity assay (HGA by HPLC), wildtype enzyme; format: biochemical; conditions: Arabidopsis enzyme
T1 construct: His6 (N); made in house; host or cells: E. coli BL21 (DE3)
T1 sequence (P93836 1-445): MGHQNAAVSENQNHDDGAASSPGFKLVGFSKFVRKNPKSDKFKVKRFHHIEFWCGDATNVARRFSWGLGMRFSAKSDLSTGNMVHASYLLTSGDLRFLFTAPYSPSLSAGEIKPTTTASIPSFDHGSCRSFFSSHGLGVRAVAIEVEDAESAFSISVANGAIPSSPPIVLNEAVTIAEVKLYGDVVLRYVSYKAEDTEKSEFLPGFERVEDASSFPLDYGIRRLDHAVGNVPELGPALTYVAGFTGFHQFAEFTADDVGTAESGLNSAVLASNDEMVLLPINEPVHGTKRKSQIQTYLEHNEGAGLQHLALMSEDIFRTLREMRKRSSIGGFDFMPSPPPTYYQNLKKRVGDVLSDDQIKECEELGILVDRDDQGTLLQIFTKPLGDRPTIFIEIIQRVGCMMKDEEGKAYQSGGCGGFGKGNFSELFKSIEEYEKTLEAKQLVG
Description: (§2) HPPD produces homogentisic acid and CO2 from 4-hydroxyphenylpyruvate (4-HPP) and O2. The activity assay for HPPD is based on the analysis of homogentisic acid by reversed phase HPLC.
(§3) The assay mixture can contain 150 mM potassium phosphate buffer pH 7.0, 50 mM L-ascorbic acid, 100 μM Catalase (Sigma-Aldrich), 1 μM FeSO4 and 0.2 units of purified HPPD enzyme in a total volume of 505 μl. 1 unit is defined as the amount of enzyme that is required to produce 1 nmol of HGA per minute at 20° C.
(§4) After a preincubation of 30 min the reaction is started by adding 4-HPP to a final concentration of 0.05 mM. The reaction is allowed to proceed for 45 min at room temperature. The reaction is stopped by the addition of 50 μl of 4.5 M phosphoric acid. The sample is filtered using a […] pore size PVDF filtration device.
(§5) 5 μl of the cleared sample is analyzed on an UPLC HSS T3 column (particle size 1.8 μm, dimensions 2.1×50 mm; Waters) by isocratic elution using 90% 20 mM NaH2PO4 pH 2.2, 10% methanol (v/v).
(§6) HGA is detected electrochemically at 750 mV (mode: DC; polarity: positive) and quantified by integrating peak areas (Empower software; Waters).
(§7) Inhibitors are dissolved in DMSO (dimethylsulfoxide) to a concentration of 0.5 mM. From this stock solution serial five-fold dilutions are prepared in DMSO, which are used in the assay. The respective inhibitor solution accounts for 1% of the assay volume. […] Activities are normalized by setting the uninhibited enzyme activity to 100%. IC50 values are calculated using non-linear regression.
(§8) Using methods which are described in the above examples or well known in the art, purified, recombinant wildtype HPPD enzymes are characterized with respect to their kinetic properties and sensitivity towards HPPD inhibiting herbicides. Apparent michaelis constants (Km) and maximal reaction velocities (Vmax) are calculated by non-linear regression with the software GraphPad Prism 5 (GraphPad Software, La Jolla, USA) using a substrate inhibition model. […] Weighted means (by standard error) of Km and IC50 values are calculated from at least three independent experiments.
(§9) Field performance of the HPPD enzyme, which is used as a herbicide tolerance trait may depend not only on its lack of sensitivity towards HPPD inhibiting herbicides but also on its activity. To assess the potential performance of a herbicide tolerance trait a tolerance index (TI) is calculated using the following formula: […]
(§10) Easy comparison and ranking of each trait is enabled by normalizing tolerance indexes on Arabidopsis wild-type HPPD.

[4] = biological target: T2, Hordeum HPPD (SEQ ID NO:2) (Hordeum vulgare, UniProt O48604, A164G/R146V/R147D/R148G); assay: HPPD activity assay (HGA by HPLC), wildtype enzyme; format: biochemical; conditions: Hordeum enzyme
T2 construct: subcloned into a modified pET24D (Novagen) expression vector resulting in N-terminally His-tagged expression constructs; His tag (N); made in house; host or cells: E. coli BL21 (DE3)
Description: as §2, §3, §4, §5, §6, §7, §8, §9, §10

[5] = apparent michaelis constant, read-out: Km [μM] (4-HPP)

T2 sequence (O48604 whole entry R146V/R147D/R148G/A164G): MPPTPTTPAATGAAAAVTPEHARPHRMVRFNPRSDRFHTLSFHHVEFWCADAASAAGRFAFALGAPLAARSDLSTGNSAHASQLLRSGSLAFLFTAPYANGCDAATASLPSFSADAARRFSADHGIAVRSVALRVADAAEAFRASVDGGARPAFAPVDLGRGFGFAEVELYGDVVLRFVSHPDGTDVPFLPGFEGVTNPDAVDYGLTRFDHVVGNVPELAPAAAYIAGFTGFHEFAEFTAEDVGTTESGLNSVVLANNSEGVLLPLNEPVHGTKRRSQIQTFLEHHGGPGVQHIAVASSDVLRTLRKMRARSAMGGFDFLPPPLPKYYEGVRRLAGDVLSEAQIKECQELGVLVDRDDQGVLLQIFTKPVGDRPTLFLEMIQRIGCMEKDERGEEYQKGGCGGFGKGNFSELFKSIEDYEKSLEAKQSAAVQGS

Row | SMILES | Tolerance factor towards Inhibitor 2 [1] | Tolerance factor towards Inhibitor 2 [2] | Km [3, 5] | kcat ([3]; turnover number) | Km [4, 5] | kcat ([4]; turnover number)
1 | COc1nonc1NC(=O)c1ccc(S(C)(=O)=O)c(S(C)(=O)=O)c1C [Inhibitor 2, N-(4-methoxy-1,2,5-oxadiazol-3-yl)-2-methyl-3,4-bis(methylsulfonyl)benzamide] | 1 | 12 |  |  |  | 
2 | O=C(O)C(=O)Cc1ccc(O)cc1 [Inhibitor 4-HPP, 4-hydroxyphenylpyruvate, reference compound] |  |  | 13 µM | 12.9 s⁻¹ | 26 µM | 11.5 s⁻¹
